Target: T1, prolyl oligopeptidase (POP) (Homo sapiens, UniProt P48147)
T1 construct: made in house; host or cells: E. coli BL21
T1 sequence (P48147 1-710): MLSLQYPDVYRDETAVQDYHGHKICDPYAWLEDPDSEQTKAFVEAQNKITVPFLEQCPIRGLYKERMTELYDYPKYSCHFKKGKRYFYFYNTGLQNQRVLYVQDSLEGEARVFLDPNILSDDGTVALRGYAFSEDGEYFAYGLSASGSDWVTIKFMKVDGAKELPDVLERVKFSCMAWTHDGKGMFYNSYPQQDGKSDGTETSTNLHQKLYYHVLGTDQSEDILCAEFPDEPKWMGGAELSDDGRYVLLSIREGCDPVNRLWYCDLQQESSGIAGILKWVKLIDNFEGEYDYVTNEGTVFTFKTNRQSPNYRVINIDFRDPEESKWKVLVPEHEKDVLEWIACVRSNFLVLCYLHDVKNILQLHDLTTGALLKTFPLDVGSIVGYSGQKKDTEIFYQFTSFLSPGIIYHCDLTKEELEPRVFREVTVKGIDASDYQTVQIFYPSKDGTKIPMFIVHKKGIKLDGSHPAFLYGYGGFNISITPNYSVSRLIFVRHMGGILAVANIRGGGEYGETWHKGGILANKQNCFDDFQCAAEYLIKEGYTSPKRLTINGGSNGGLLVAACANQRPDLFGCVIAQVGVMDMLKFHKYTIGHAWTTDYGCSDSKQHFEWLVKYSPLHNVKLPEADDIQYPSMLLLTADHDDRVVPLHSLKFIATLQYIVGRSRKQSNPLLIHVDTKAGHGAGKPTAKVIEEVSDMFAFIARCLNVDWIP
Assay: ITC enthalpy of catalysis and Michaelis-Menten parameters with TRH
Format: biochemical
Conditions: 30 °C
Protocol: Prolyl oligopeptidase enthalpy of catalysis and Michaelis-Menten parameters.
Supplementary Figure 3. Prolyl oligopeptidase and TRH enthalpy of catalysis. 3 injections (15 µL over 30 s) of Thyrotropin-releasing Hormone (TRH) (5.5 mM in syringe) into cell containing POP (250 nM in Cell) at 30 °C in buffer described above. Experiment was carried out using a Malvern VP -ITC.
Supplementary Figure 4. Michaelis-Menten plot for prolyl oligopeptidase with TRH. 5 injections (8 µL, 6 […]
Thyrotropin -releasing Hormone (TRH) (27.6 mM in syringe) into cell containing POP (2.5 nM in Cell) at 30 °C in buffer described above. The enzyme velocity at several concentrations of substrate (black ope n circles) was extracted using the methods described in 13 and fit to Michaelis-Menten kinetics (blue curve).
Experiment was carried out in Malvern VP -ITC. […]
Supplementary Table 1. Summary of prolyl oligopeptidase 13 enzyme parameters with TRH. Determined by ITC using techniques presented by Gomez et al.
Enthalpy of binding in kinetics of inhibition and initiation experiments . In the kinetics of inhibition and initiation experiments performed here, the instrument measures both the heat generated by enzymatic catalysis and the heat produced due direct interaction of the inhibitor with the enzyme. In order to estimate the relative magnitudes of these two effects, the enthalpy of binding was directly measured […]
1000-fold greater, 5 µM) than those used in kinetics of inhibition and initiation experiments (Supplementary Fig. 5 ). Binding data were then modelled at the concentrations of enzyme and inhibitor and injection size and spacing used for the kinetic experiment for compound 5, with representative instrumental noise estimated from the basel ines, ΔHbind taken from Supplementary Table 2 and Ki taken as a previously reported value (0.5 nM) 14 (Supplementary Fig. 6).
Supplementary Figure 5. Compound 5 prolyl o ligopeptidase binding experiments. Compound 5 (90 µM) was titrated into 5 µM POP in cell using a Malvern ITC-200 calorimeter. […]

With thyrotropin-releasing hormone [TRH] the Km was 975 µM, the kcat was 42.19 s⁻¹ and the ΔHcat was -6.72 ± 0.06 kcal/mol.

— article PMC5832847, “Rapid measurement of inhibitor binding kinetics by isothermal titration calorimetry” (Nature Communications, 2018)
